Among the test systems are NCI-H23 lung; SN12C renal; 786-0 renal; M14 melanoma; BT-549 breast; SNB-75 CNS; SR leukemia; NCI/ADR-RES ovarian.
Common to all, as to experiment: NCI-60 cell line screen, 48 h

Each structure is given as a SMILES string.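 Following 48 hours of exposure in 96-well plates, responses at five concentrations were used to interpolate endpoints linearly. The concentration for 50% growth inhibition is given as GI50. TGI: total growth inhibition.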

In the case of `O=C1NC(=O)C(c2c[nH]c3ccccc23)=C1c1ccccc1`, the GI50 was above 25 µM with NCI-H23 lung; above 25 µM with SN12C renal; above 25 µM with 786-0 renal; above 25 µM in the test on M14 melanoma; above 25 µM in the test with BT-549 breast; 10300 nM in the test on SNB-75 CNS. Besides, the GI50 with SR leukemia and in the test with NCI/ADR-RES ovarian was above 25 µM in each case. The TGI with NCI-H23 lung, with SN12C renal, in the test with 786-0 renal, in the test with M14 melanoma, in the test on BT-549 breast and in the test on SNB-75 CNS was above 25 µM throughout. For the same compound, the TGI in the test on SR leukemia and in the test on NCI/ADR-RES ovarian was above 25 µM each time.
Regarding `COC(=O)[C@]12CC[C@@H](C)[C@H](C)[C@@H]1C1=CC[C@@H]3[C@@]4(C)CC(=O)[C@H](O)[C@@](C)(CO)[C@@H]4C(=O)C[C@@]3(C)[C@]1(C)CC2`, the GI50 was 13.9 µM with NCI-H23 lung; 12.4 µM with SN12C renal; 12.4 µM in the test on 786-0 renal; 11.9 µM with M14 melanoma; 11.3 µM in the test with BT-549 breast; 12700 nM in the test on SNB-75 CNS. The GI50 in the test on SR leukemia is 5.95 µM; in the test with NCI/ADR-RES ovarian, 12.1 µM. Also, the TGI is 31.1 µM in the test on NCI-H23 lung; 27.3 µM in the test with SN12C renal; 25.4 µM in the test on 786-0 renal; 25.1 µM in the test with M14 melanoma; 23.5 µM in the test with BT-549 breast; 27.1 µM in the test on SNB-75 CNS. In addition, the TGI with SR leukemia came out at 27.1 µM; with NCI/ADR-RES ovarian, 32.4 µM.
As to `COc1ccc2c(c1)N(CCO)C1=C(C(=O)OC1)C2c1ccc(OC)c(OC)c1` (stereo not drawn), the GI50 was 3.39 µM with NCI-H23 lung; 5.8 µM with SN12C renal; 3.98 µM with 786-0 renal; 2.44 µM with M14 melanoma; 2.98 µM with BT-549 breast; 2700 nM in the test on SNB-75 CNS. In addition, the GI50 is 3.68 µM with SR leukemia and 4.38 µM in the test on NCI/ADR-RES ovarian. The TGI is above 100 µM in the test with NCI-H23 lung; above 100 µM with SN12C renal; above 100 µM in the test on 786-0 renal; above 100 µM in the test with M14 melanoma; 9.74 µM in the test on BT-549 breast; above 100 µM with SNB-75 CNS. For the same compound, the TGI in the test with SR leukemia was above 100 µM; with NCI/ADR-RES ovarian it was 45.1 µM.
With `N[C@@H](CSSC[C@H](N)C(=O)N1CCn2cc(-c3ccccc3)nc2[C@@H]1CC1CCCCC1)C(=O)N1CCn2cc(-c3ccccc3)nc2[C@@H]1CC1CCCCC1`, the GI50 in the test with NCI-H23 lung was 1.41 µM; in the test on SN12C renal, 1.62 µM; in the test on 786-0 renal it was 2.12 µM; with M14 melanoma, 0.301 µM; in the test on BT-549 breast, 2.23 µM; with SNB-75 CNS it was 1790 nM. Besides, the GI50 is 1.38 µM in the test on SR leukemia and 2.95 µM in the test with NCI/ADR-RES ovarian. The TGI with NCI-H23 lung came to 3.14 µM; in the test with SN12C renal it was 3.56 µM; in the test with 786-0 renal, 4.52 µM; in the test on M14 melanoma it was 1.23 µM; in the test on BT-549 breast, 3.91 µM; in the test with SNB-75 CNS, 3.3 µM. Moreover, in the test with NCI/ADR-RES ovarian, the TGI is 9.32 µM.
Regarding `Cc1cc2c(cc1Cl)N1C(=O)NS(=O)(=O)N=C1NS2(=O)=O`, the GI50 was above 100 µM with NCI-H23 lung; above 100 µM with SN12C renal; above 100 µM in the test with 786-0 renal; above 100 µM in the test with M14 melanoma; above 100 µM with BT-549 breast; above 100000 nM in the test on SNB-75 CNS. The GI50 in the test on SR leukemia and in the test with NCI/ADR-RES ovarian was above 100 µM throughout. Besides, the TGI with NCI-H23 lung, in the test on SN12C renal, in the test on 786-0 renal, in the test with M14 melanoma, with BT-549 breast and with SNB-75 CNS was above 100 µM throughout. Also, the TGI with SR leukemia and in the test with NCI/ADR-RES ovarian was above 100 µM each time.
`C=C1C(=O)C2(C)OC2(C)C1C(=O)O` (stereo not drawn): the TGI in the test on NCI-H23 lung, with SN12C renal, in the test on 786-0 renal, with M14 melanoma, with BT-549 breast and in the test with SNB-75 CNS was above 100 µM in each case. The TGI in the test on SR leukemia and in the test on NCI/ADR-RES ovarian was above 100 µM each time.
Turning to `COc1cc(Cn2c(SCC(=O)Nc3ccc(Cl)cc3)nc3ccccc3c2=O)cc(OC)c1OC`, the GI50 is 16.5 µM in the test on NCI-H23 lung; 16.9 µM in the test on SN12C renal; 3.37 µM in the test on 786-0 renal; 16.5 µM in the test on M14 melanoma; 6.42 µM with BT-549 breast; 1580 nM in the test on SNB-75 CNS. The GI50 with SR leukemia is 18.5 µM; with NCI/ADR-RES ovarian, 8.38 µM. Also, the TGI in the test with NCI-H23 lung is 72.6 µM; with SN12C renal, above 100 µM; in the test on 786-0 renal it was 12.3 µM; in the test on M14 melanoma, 86.4 µM; with BT-549 breast, 23.8 µM; with SNB-75 CNS it was 4.89 µM. Besides, the results for the TGI in the test with SR leukemia and in the test on NCI/ADR-RES ovarian were above 100 µM and 27.6 µM, respectively.
As for `O=C1/C(=C/c2ccccc2[N+](=O)[O-])COc2ccc(O)c(O)c21`, the GI50 was 1.54 µM in the test with NCI-H23 lung; 0.679 µM in the test with SN12C renal; 0.805 µM in the test on 786-0 renal; 0.797 µM with M14 melanoma; 0.882 µM in the test on BT-549 breast; 1460 nM in the test on SNB-75 CNS. Also, the GI50 is 0.476 µM in the test on SR leukemia and 1.23 µM in the test with NCI/ADR-RES ovarian. The TGI worked out at 5.22 µM with NCI-H23 lung; 6.05 µM in the test on SN12C renal; 4.74 µM with 786-0 renal; 2.89 µM in the test with M14 melanoma; 4.02 µM in the test with BT-549 breast; 6.17 µM in the test on SNB-75 CNS. The results for the TGI in the test with SR leukemia and with NCI/ADR-RES ovarian were above 100 µM and 13.6 µM, respectively.
For the compound `CCCCCCSc1nc(COC(=O)NC)c(COC(=O)NC)n1C`, the TGI in the test with NCI-H23 lung, in the test with SN12C renal, with 786-0 renal, in the test on M14 melanoma, in the test with BT-549 breast and in the test with SNB-75 CNS was above 100 µM each time. Further, the TGI in the test with SR leukemia and with NCI/ADR-RES ovarian was above 100 µM in each case.
As for `Fc1ccc(C2C3CCOc4c(ccc5ccccc45)C3=NN2c2ccccc2)cc1` (stereo not drawn), the GI50 in the test on NCI-H23 lung was above 100 µM; in the test on SN12C renal, above 100 µM; in the test with 786-0 renal, above 100 µM; with M14 melanoma it was above 100 µM; in the test on BT-549 breast, above 100 µM; in the test with SNB-75 CNS it was above 78700 nM. The GI50 in the test on SR leukemia is 13.3 µM; in the test with NCI/ADR-RES ovarian it was above 100 µM. For the same compound, the TGI with NCI-H23 lung, with SN12C renal, in the test on 786-0 renal, in the test with M14 melanoma, in the test on BT-549 breast and in the test on SNB-75 CNS was above 100 µM each time. For the same compound, the TGI in the test on SR leukemia and in the test on NCI/ADR-RES ovarian was above 100 µM throughout.

Source of the values: PubChem BioAssay (NCI).
